Holding throughout (type): physicochemical
Data set [1] can be described thus: Density (viscometer/densimeter SVM 3000). The method, then: (§1) The equipment used is: • 15 mL flasks • A refrigerated cabinet at 0° C. (Panasonic—MR-154-PE) • 3 mL pipettes • An analytical balance (OHAUS Adventurer Pro AV264C) • A watch glass • A spatula • A tensiometer, brand name K100, sold by KRÜSS GmbH, Borsteler Chaussee 85, 22453 Hamburg, Germany. • A 70 mL crystallizing dish • A platinum blade • KRUSS laboratory software • A viscometer/densimeter SVM 3000—Anton Paar
(§2) The compositions of formulae 19 to 23 and the dispersants of the prior art are tested for surface tension in order to find the wettability thereof, by using a fine plate (called a Wilhelmy plate) connected to an analytical balance. The method of the Wilhelmy blade on the K100 is used. A 70 mL crystallizing dish filled with 30 mL of product to be tested is placed in the K100. The platinum blade is arranged over the product. The KRUSS Laboratory software determines the surface tension of the liquid, via the force felt by the blade in the liquid. The viscosity and the density are also measured.

Data set [2] in a line: Surface tension, Wilhelmy blade method on the K100 tensiometer. The method, then: as §1, §2
A short description of data set [3]: Viscosity (viscometer/densimeter SVM 3000). The method, then:
as §1, §2

As for `CN1CCCC1=O` [NMP, N-methyl-2-pyrrolidone], the “Density at 20° C.” value in data set [1] stood at 1.03 g/mL. Further, the “Surface tension at 20° C.” value in data set [2] was found to be 40 mN/m. The “Viscosity at 20° C.” value in data set [3] worked out at 1.7 mm^2/s.

The values above are taken from patent US20190191695A1, “DISSOLVENT COMPOSITION, STABLE UNDER COLD CONDITIONS” (OLEON NV, priority 2016, published 2019).
